Patent EP4635500A1, “THERAPEUTIC AGENT FOR BACTERIAL INFECTION” (Sumitomo Pharma Co., Ltd., priority 2022, dated 2024)
Values joined by “and” are separate entries in the source; they are usually repeats but may differ in a detail not shown here. Equal values may be shown once. Read-outs that look alike come from different tables or passages of the source.

Legend:
[1] = tested on: Enterobacterales; assay: MIC, broth microdilution, CDC/FDA Antibiotic Resistance Isolate Bank (Example 7, Tables 8, 11, 12); assay type: cell-based
[2] = tested on: A. baumannii; assay: MIC, broth microdilution, CDC/FDA Antibiotic Resistance Isolate Bank (Example 7, Tables 9, 13, 14); assay type: cell-based, Acinetobacter baumannii
[3] = carbapenemase-producing Enterobacterales, Metallo-β-lactamase (N = 47)
[4] = carbapenemase-producing Enterobacterales, Serine carbapenemase (N=61)

Substance: colistin
- MIC ([1]; Klebsiella pneumoniae, KUB No. 5606, AR Bank # 109): 32 µg/mL
- MIC ([1]; Klebsiella pneumoniae, KUB No. 5609, AR Bank # 112): 0.5 µg/mL
- MIC ([1]; Klebsiella pneumoniae, KUB No. 5610, AR Bank # 113): 0.5 µg/mL
- MIC ([1]; Klebsiella pneumoniae, KUB No. 5612, AR Bank # 115): 1 µg/mL
- MIC ([1]; Klebsiella pneumoniae, KUB No. 5614, AR Bank # 117): 1 µg/mL
- MIC ([1]; Klebsiella pneumoniae, KUB No. 5617, AR Bank # 120): 1 µg/mL
- MIC ([1]; Klebsiella pneumoniae, KUB No. 5622, AR Bank # 125): 16 µg/mL
- MIC ([1]; Klebsiella pneumoniae, KUB No. 5626, AR Bank # 129): 0.5 µg/mL
- MIC ([1]; Klebsiella pneumoniae, KUB No. 5757, AR Bank # 361): 0.5 µg/mL
- MIC ([1]; Klebsiella pneumoniae, KUB No. 5759, AR Bank # 363): 0.5 µg/mL
- MIC ([1]; Klebsiella pneumoniae, KUB No. 5760, AR Bank # 364): 64 µg/mL
- MIC ([1]; Klebsiella pneumoniae, KUB No. 5772, AR Bank # 376): 0.5 µg/mL
- MIC ([1]; Proteus mirabilis, KUB No. 5775, AR Bank # 379): 64 µg/mL
- MIC ([1]; Raoultella ornithinolvtica, KUB No. 5631, AR Bank # 134): 8 µg/mL
- MIC ([1]; Salmonella Senftenberg, KUB No. 5624, AR Bank # 127): 0.5 µg/mL
- MIC50 [1, 3]: 0.5 µg/mL
- MIC90 [1, 3]: 8 µg/mL
- MIC50 [1, 4]: 0.5 µg/mL
- MIC90 [1, 4]: >64 µg/mL
- MIC90 ([1]; metallo-β-lactamase-producing strains of Enterobacterales): 8 µg/mL
- MIC [2]: 0.5 µg/mL and 1 µg/mL
- MIC50 ([2]; 55 isolates of A. baumannii): 1 µg/mL
- MIC80 ([2]; 55 isolates of A. baumannii): 2 µg/mL
- MIC90 ([2]; 55 isolates of A. baumannii): 2 µg/mL
- MIC ([2]; A. baumannii KUB No. 5567, AR Bank #70, OXA-58, OXA-100): 0.25 µg/mL
- MIC ([2]; A. baumannii KUB No. 5575, AR Bank #78, OXA-71): 1 µg/mL
- MIC ([2]; A. baumannii KUB No. 5580, AR Bank #83, OXA-23, OXA-69, NDM-1): 1 µg/mL
- MIC ([2]; A. baumannii KUB No. 5585, AR Bank #88, OXA-64, NDM-1): 1 µg/mL
- MIC ([2]; A. baumannii KUB No. 5598, AR Bank #101, OXA-24, OXA-65): 1 µg/mL
- MIC ([2]; A. baumannii KUB No. 5599, AR Bank #102, OXA-66): 1 µg/mL
- MIC ([2]; A. baumannii KUB No. 5706, AR Bank #273, OXA-23, OXA-66): 1 µg/mL
- MIC ([2]; A. baumannii KUB No. 5707, AR Bank #274, OXA-66, OXA-72): 0.5 µg/mL
- MIC ([2]; A. baumannii KUB No. 5708, AR Bank #275, OXA-23, OXA-66): 1 µg/mL
- MIC ([2]; A. baumannii KUB No. 5709, AR Bank #276, no carbapenemase genes (-)): 2 µg/mL
- MIC ([2]; A. baumannii KUB No. 5710, AR Bank #277, OXA-24, OXA-65): 0.5 µg/mL
- MIC ([2]; A. baumannii KUB No. 5711, AR Bank #278, OXA-23, OXA-66): 1 µg/mL
- MIC ([2]; A. baumannii KUB No. 5712, AR Bank #279, OXA-23, OXA-66): 1 µg/mL
- MIC ([2]; A. baumannii KUB No. 5713, AR Bank #280, OXA-66): 1 µg/mL
- MIC ([2]; A. baumannii KUB No. 5714, AR Bank #281, OXA-82): 1 µg/mL
- MIC ([2]; A. baumannii KUB No. 5715, AR Bank #282, OXA-23, OXA-66): 1 µg/mL
- MIC ([2]; A. baumannii KUB No. 5716, AR Bank #283, OXA-23, OXA-66): 1 µg/mL
- MIC ([2]; A. baumannii KUB No. 5717, AR Bank #284, OXA-24, OXA-65): 1 µg/mL
- MIC ([2]; A. baumannii KUB No. 5718, AR Bank #285, OXA-24, OXA-65): 0.5 µg/mL
- MIC ([2]; KUB No. 5719, AR Bank #286): 1 µg/mL
- MIC ([2]; KUB No. 5720, AR Bank #287): 1 µg/mL
- MIC ([2]; KUB No. 5721, AR Bank #288): >64 µg/mL
- MIC ([2]; KUB No. 5722, AR Bank #259): 2 µg/mL
- MIC ([2]; KUB No. 5723, AR Bank #290): 1 µg/mL
- MIC ([2]; KUB No. 5724, AR Bank #291): 1 µg/mL
- MIC ([2]; KUB No. 5725, AR Bank #292): 1 µg/mL
- MIC ([2]; KUB No. 5726, AR Bank #293): 1 µg/mL
- MIC ([2]; KUB No. 5727, AR Bank #294): 1 µg/mL
- MIC ([2]; KUB No. 5728, AR Bank #295): 1 µg/mL
- MIC ([2]; KUB No. 5729, AR Bank #296): 2 µg/mL
- MIC ([2]; KUB No. 5730, AR Bank #297): 2 µg/mL
- MIC ([2]; KUB No. 5731, AR Bank #298): 0.5 µg/mL
- MIC ([2]; KUB No. 5732, AR Bank #299): 2 µg/mL
- MIC ([2]; KUB No. 5733, AR Bank #300): 1 µg/mL
- MIC ([2]; KUB No. 5734, AR Bank #301): 1 µg/mL
- MIC ([2]; KUB No. 5735, AR Bank #302): 1 µg/mL
- MIC ([2]; KUB No. 5736, AR Bank #303): >64 µg/mL
- MIC ([2]; KUB No. 5737, AR Bank #304): 4 µg/mL
- MIC ([2]; KUB No. 5738, AR Bank #305): 2 µg/mL
- MIC ([2]; KUB No. 5739, AR Bank #306): 1 µg/mL
- MIC ([2]; KUB No. 5740, AR Bank #307): 2 µg/mL
- MIC ([2]; KUB No. 5741, AR Bank #308): 1 µg/mL
- MIC ([2]; KUB No. 5742, AR Bank #309): 2 µg/mL
- MIC ([2]; KUB No. 5743, AR Bank #310): 1 µg/mL
- MIC ([2]; KUB No. 5744, AR Bank #311): 1 µg/mL
- MIC ([2]; KUB No. 5745, AR Bank #312): 1 µg/mL
- MIC ([2]; KUB No. 5746, AR Bank #313): 2 µg/mL
